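Results reflect a 48-hour exposure of cells in 96-well plates to compound at five concentrations. The concentration for 50% growth inhibition is given as GI50.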 Calls of active or inactive are those of the source. Rule as the data show it: active = GI50 up to about 1.1 µM and inactive = higher.
Assays:
Test in all cases: DTP human tumour cell line panel, 48 h
[1] = system: LOX IMVI
[2] = system: HT-29
[3] = system: EKVX
[4] = system: OVCAR-8
[5] = system: IGROV-1
[6] = system: MDA-MB-231
[7] = system: SN12C
[8] = system: DU-145
[9] = system: M14
[10] = system: OVCAR-5
[11] = system: SK-MEL-5
[12] = system: K562
[13] = system: RPMI-8226
[14] = system: U-251
[15] = system: Malme-3M
[16] = system: NCI-H23
[17] = system: SF-268
[18] = system: OVCAR-4
[19] = system: NCI-H522
[20] = system: UACC-62

Compound | GI50 [1] | GI50 [2] | GI50 [3] | GI50 [4] | GI50 [5] | GI50 [6] | GI50 [7] | GI50 [8] | GI50 [9] | GI50 [10] | GI50 [11] | GI50 [12] | GI50 [13] | GI50 [14] | GI50 [15] | GI50 [16] | GI50 [17] | GI50 [18] | GI50 [19] | GI50 [20]
Oc1ccc(/C=N/CC2CCCN3CCCCC23)cc1 (stereo not given) | 21.4 µM (inactive) | 16.6 µM (inactive) | 27.5 µM (inactive) | 44 µM (inactive) | 24.2 µM (inactive) | 28.8 µM (inactive) | 19.1 µM (inactive) | 16 µM (inactive) | 26.5 µM (inactive) | 31.3 µM (inactive) | 20.5 µM (inactive) | 43.3 µM (inactive) | 20.9 µM (inactive) | 17.6 µM (inactive) | 24.7 µM (inactive) | 24.9 µM (inactive) | 24.5 µM (inactive) | 17.8 µM (inactive) | 17.9 µM (inactive) | 24.5 µM (inactive)
CC(=O)O[C@H]1C(=O)[C@@]2(C)[C@H]([C@H](OC(=O)c3ccco3)[C@]3(O)C[C@H](OC(=O)[C@H](O)[C@@H](NC(=O)c4ccccc4)c4ccccc4)C(C)=C1C3(C)C)[C@]1(OC(C)=O)CO[C@@H]1C[C@@H]2O | 0.129 µM (active) | 0.0393 µM (active) | > 8.79 µM (inactive) | 0.273 µM (active) | 0.251 µM (active) | 4.58 µM (inactive) | 0.308 µM (active) | 0.676 µM (active) | 0.421 µM (active) | 0.333 µM (active) | 0.116 µM (active) | 0.078 µM (active) | 0.0189 µM (active) | 0.125 µM (active) | 0.119 µM (active) | 0.412 µM (active) | 0.185 µM (active) | > 22.4 µM (inactive) | 0.309 µM (active) | 0.277 µM (active)
COc1cc(C[C@H]2c3cc(OC)c(OC)cc3CCN2C)c(Oc2cc3c(cc2OC)-c2c(OC)c(OC)cc4c2[C@H](C3)N(C)CC4)cc1OC [THALICARPINE] | 7.21 µM (inactive) | 5.66 µM (inactive) | 12.9 µM (inactive) | 7.43 µM (inactive) | 10.8 µM (inactive) | 4.13 µM (inactive) | 12.4 µM (inactive) | 14 µM (inactive) | 1.52 µM (inactive) | 10.5 µM (inactive) | 3.28 µM (inactive) | 4.88 µM (inactive) | 8.04 µM (inactive) | 3.9 µM (inactive) | 9.44 µM (inactive) | 12.4 µM (inactive) | 9.98 µM (inactive) | 8.3 µM (inactive) | 6.89 µM (inactive) | 6.65 µM (inactive)
CCCCc1ccc(Nc2nc(Cl)c3ccn(C4CC(Oc5ccc(C)cc5)C(COc5ccc(C)cc5)O4)c3n2)cc1 (stereo not given) | > 46.5 µM (inactive) | > 46.5 µM (inactive) | 28.6 µM (inactive) | > 46.5 µM (inactive) | 22.9 µM (inactive) | > 46.5 µM (inactive) | > 46.5 µM (inactive) | > 46.5 µM (inactive) | > 46.5 µM (inactive) | > 31.6 µM (inactive) | > 46.5 µM (inactive) | > 46.5 µM (inactive) | > 46.5 µM (inactive) | > 46.5 µM (inactive) | 26.7 µM (inactive) | 24.8 µM (inactive) | > 100 µM (inactive) | > 31.6 µM (inactive) | 22.4 µM (inactive) | 24.5 µM (inactive)
O=C1SC(c2ccc(Cl)cc2)(c2ccc(Cl)cc2)c2ccccc21 | 80.7 µM (inactive) | 38.5 µM (inactive) | 86.7 µM (inactive) | > 100 µM (inactive) | > 100 µM (inactive) | > 100 µM (inactive) | > 100 µM (inactive) | 89.1 µM (inactive) | 87.9 µM (inactive) | > 100 µM (inactive) | 52.8 µM (inactive) | 44.5 µM (inactive) | 55.8 µM (inactive) | > 100 µM (inactive) | > 100 µM (inactive) | 59.4 µM (inactive) | > 100 µM (inactive) | 33.5 µM (inactive) | 70 µM (inactive) | 98.4 µM (inactive)

— ChEMBL document CHEMBL1201862, “PubChem BioAssay data set” (2004)
